Measurements as given in US11771672B2, “Use of 2-hydroxyoleic acid for the treatment of systemic lupus erythematosus and other immune pathologies” (THE RESEARCH FOUNDATION FOR THE STATE UNIVERSITY OF NEW YORK, priority 2017, dated 2023).
Where two headings read alike, the source gives them in different places.

Tests used:
SMS = details: cited from earlier work
NZBWF1 mice = assay: Serum total IgG and anti-dsDNA IgG titers by ELISA in NZBWF1 mice (spontaneous SLE mouse model); type: in vivo; details: female NZBWF1 mice, four weeks
Excerpt: Given that PKCδ nuclear translocation was promoted by enhancing SMS2 activity with 2OHOA, whether this drug could be adopted to strengthen B cell tolerance in NZBWF1 mice that spontaneously develop SLE due to impaired tolerance caused by multiple genetic variants other than Sgms2 or Prkcd was examined. Remarkably, the expected increase in titers of anti-dsDNA IgGs in the sera of NZBWF1 mice over the same time frame as sham treated mice was impeded by 2OHOA treatment. […] This treatment started when the mouse serum anti-dsDNA IgG level reached the levels between 1,000 ng/ml and 30,000 ng/ml. The titers of serum total IgG and anti-dsDNA IgG were measured by ELISA. Shown in the graph are ratios of the IgG titers after treatment to the titers before treatment. Mann-Whitney test (2 tailed) was used to calculate p values, SEMs, and other parameters as shown in the graph and table. Data represents the results of 15 2OHOA-treated and 10 empty vehicle-treated mice.

SMS2 = biological target: T1, SMS2 (Mus musculus, UniProt Q9D4B1); assay: Elisa analysis of plasma membrane DAG levels in B cells; type: cell-based; details: purified Sgms2+/+ B cells
T1 construct: endogenous in cells; host or cells: purified primary splenic B cells from Sgms2+/+ mice (C57BL/6 background); Sgms2-/- B cells as knockout control
T1 sequence (Q9D4B1 1-365): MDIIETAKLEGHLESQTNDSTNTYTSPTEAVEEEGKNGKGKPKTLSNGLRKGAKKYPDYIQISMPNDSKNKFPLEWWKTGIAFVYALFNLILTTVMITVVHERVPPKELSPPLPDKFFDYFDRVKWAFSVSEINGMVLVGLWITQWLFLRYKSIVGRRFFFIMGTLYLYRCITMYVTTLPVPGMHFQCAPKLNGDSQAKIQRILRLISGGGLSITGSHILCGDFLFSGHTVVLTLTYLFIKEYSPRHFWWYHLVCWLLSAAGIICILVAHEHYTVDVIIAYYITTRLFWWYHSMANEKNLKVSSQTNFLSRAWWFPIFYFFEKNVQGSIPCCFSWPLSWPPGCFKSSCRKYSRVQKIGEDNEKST

PKCδ = assay: Western blot analysis of nuclear PKCδ (PKCδ nuclear translocation) in splenic B cells; type: cell-based, mouse
Excerpt: Generally speaking, PKCs are known to receive DAG on the plasma membrane for their full activation and subsequent subcellular translocation. However, in B cells, the plasma membrane DAG provider that activates PKCδ nuclear translocation is still unknown. Whether SMS2 was the DAG provider for PKCδ activation in mature B cells was therefore tested. In contrast to Sgms2^+/+ naive B cells, nuclear PKCδ was barely detectable in the Sgms2^−/− naive B cells following 24 hr culture. […] This DAG analog-dependent effect supported the involvement of SMS2-derived DAG in activation of PKCδ nuclear translocation.
To further clarify the mechanism that regulates PKCδ activation by SMS2-generated DAG, whether enhancing SMS2 activity could correspondingly increase PKCδ nuclear translocation in cultured Sgms2^+/+ B cells was tested.
293T cells were transfected with plasmid vectors to overexpress FLAG-tagged different SMS2 portions as indicated. Protein lysates from transfected 293T cells were immunoprecipitated with anti-FLAG antibody and then immunoblotted with anti-PKCδ antibody. Sample loading was controlled by inputs of cell lysates. […] Thus, SMS2 is a critical and direct PKCδ activator in mature B cells.

splenic B cells = assay: Lysenin toxicity assay of surface SM levels in splenic B cells; type: cell-based, mouse; details: Sgms2-/- B cells, SM supplementation
[1] = as disclosed in U.S. Pat. No. 9,359,281

CC/C=C\C/C=C\C/C=C\CCCCCCC(O)C(=O)O (stereo not drawn) [2-hydroxy-alpha-linoleic acid]
stimulation of SMS activity (SMS; [1]): stimulate SMS activity

CCCCC/C=C\C/C=C\C/C=C\CCCC(O)C(=O)O (stereo not shown) [2-hydroxy-gamma-linoleic acid]
stimulation of SMS activity (SMS; [1]): stimulate SMS activity

CCCCC/C=C\C/C=C\CCCCCCC(O)C(=O)O (stereo not shown) [2-hydroxylinoleic acid]
stimulation of SMS activity (SMS; [1]): stimulate SMS activity

CCCCCC/C=C\CCCCCCC(O)C(=O)O (stereo not shown) [2-hydroxypalmitoleic acid]
stimulation of SMS activity (SMS; [1]): stimulate SMS activity

CCCCCCCC/C=C\CCCCCCC(O)C(=O)O (stereo not shown) [2OHOA, 2-hydroxyoleic acid]
increase in titers of anti-dsDNA IgGs in the sera (NZBWF1 mice; oral gavage 400 mg/kg per day, vs sham treated mice): impeded | total serum IgG titers (NZBWF1 mice; oral gavage 400 mg/kg/day): without reducing the total serum IgG titers | SMS2-derived DAG level (plasma membrane DAG) (SMS2): increased | PKCδ nuclear translocation (PKCδ; Sgms2-/- B cells, 2OHOA-treated): but not in Sgms2^−/− B cells | PKCδ nuclear translocation (PKCδ; purified Sgms2+/+ B cells, 2OHOA-treated): increased

CCCCCCCC/C=C\CCCCCC[C@H](O)C(=O)O [(S)-2OHOA, (S)-2-hydroxyoleic acid]
stimulation of SMS activity (SMS; compared with (R)-2-hydroxyoleic acid or a mixture of the two stereoisomers): more strongly stimulates SMS activity

C/C=C(/C)C(=O)O[C@H]1C(C)=C[C@]23C(=O)[C@@H](C=C(CO)[C@@H](O)[C@]12O)[C@H]1[C@@H](C[C@H]3C)C1(C)C [I3A, ingenol-3-angelate]
nuclear PKCδ (PKCδ; Sgms2+/+ B cells cultured for 30 minutes): increased nuclear PKCδ | nuclear PKCδ (PKCδ; Sgms2-/- B cells cultured for 30 minutes): increased nuclear PKCδ

CCCCCCCCCCCCCC(=O)O[C@@H]1[C@@H](C)[C@@]2(O)[C@@H](C=C(CO)C[C@]3(O)C(=O)C(C)=C[C@@H]23)[C@@H]2C(C)(C)[C@]12OC(C)=O [PMA]
PKCδ nuclear translocation (PKCδ; Sgms2+/+ B cells, PMA): promotion of PKCδ nuclear translocation | PKCδ nuclear translocation (PKCδ; Sgms2-/- B cells, PMA): but not in Sgms2^−/− B cells

sphingomyelin [SM]
surface SM level (splenic B cells): Restoration of surface SM level | nuclear PKCδ level (PKCδ; Sgms2-/- B cells, SM supplementation 24 hr): could not restore
